Experimental data as given in patent US9447083B2, “N-acylhydrazone derivatives for selective T cell inhibitor and anti-lymphoid malignancy drug” (CHONG KUN DANG PHARMACEUTICAL CORP., priority 2012, dated 2016).
Values joined by “and” are separate entries in the source; they are usually repeats but may differ in a detail not shown here. Equal values may be shown once.

What was measured:
[1] = tested on: acute graft-versus-host disease; assay: Acute graft-versus-host disease, mouse model of allogeneic bone marrow transplantation; type: in vivo; conditions: 25 mg/kg intraperitoneally daily for 10 days
Source text: Lymph nodes, spleens, both femurs and tibias were aseptically collected from normal C57BL/6 mice (8-12 week old, female, 20-23 g), and T cells were isolated from the lymph nodes and spleens in the same manner as described in Experimental Example 2 and were re-suspended in PBS at a concentration of 8×10^7 cells/mL. The femurs and tibias were cut at the ends, and the bone marrow was flushed from femurs and tibias with RPMI medium using a syringe (21G for femur and 26G for tibia) to extract the marrow, which was then suspended and passed through a cell strainer to make a single cell suspension. The bone marrow cell suspension was centrifuged at 1200 rpm for 5 minutes, and the supernatant was removed, then the cells were added to 1 mL of ACK lysis buffer and vortexed for 1 minute, followed by washing with RPMI medium. […] The incubated cell suspension was added with 5 mL of MACS buffer, centrifuged for 5 minutes, washed, and then re-suspended in 2 mL of MACS buffer. The suspended cells were placed in the autoMACS Pro Separator, and T cells bound to the CD90.2 microbeads were removed. The separated T cell-depleted bone marrow cells (TCD-BM) were washed with PBS and re-suspended in PBS at a concentration of 1×10^8 cells/mL. Normal BDF1 mice (10-12 week old, female, 20-23 g) were irradiated with 850 rad of γ radiation using an irradiator, and then 100 μL of a graft obtained by mixing the C57BL/6 mouse T cells and the TCD-BM at a ratio of 1:1 was injected into the tail vein of the BDF1 mice. In a group treated with compound 229 of the present invention, compound 229 was completely dissolved in a Cremophor EL-ethanol mixture (1:1, v/v) in an amount corresponding to 15% (v/v) of the administration volume, after which the compound solution was diluted in PBS, and the dilution was administered intraperitoneally to each mouse at a dose of 25 mg/kg daily for 10 days from the day of the graft injection. Meanwhile, Tacrolimus that is a currently clinically used immunosuppressive agent was administered to mice of another group in the same amount as compound 229 in order to compare the inhibitory effect on acute graft-versus-host disease, and mice of a vehicle control group were administered with 200 μL of a Cremophor EL-ethanol-PBS (7.5:7.5:85, v/v/v) in the same manner as the treated groups. Then, the survival of mice was monitored daily, and the severity of GVHD was assessed twice a week with clinical GVHD scoring system for each a decrease in weight loss, hunched posture, decreased activity, fur ruffling and skin lesions. Each parameters were scored on a 3-point (0 to 2) scale.

[2] = tested on: Jurkat T cells; assay: Pro-apoptotic activity on Jurkat T cells (FITC-Annexin V / 7-AAD flow cytometry); type: cell-based; conditions: Homo sapiens, 72 hours, cells stained with FITC-Annexin V and 7-AAD among total cells, read-out: Cell Apoptosis Effect to Jurkat T Cell (% in 5 μM)
In short: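 Jurkat cells at 1.5×10^5 cells/mL in RPMI/10% FBS treated with compounds at […] or 5 μM final for 72 h at 37° C, vehicle containing 1% DMSO. Stained with FITC-Annexin V and 7-AAD for 15 min at room temperature in pH 7.4 Hepes binding buffer. Apoptosis = % double-stained cells by flow cytometry.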

[3] = tested on: KMS12BM; assay: Apoptosis of lymphoid malignancy cell lines: KMS12BM; type: cell-based; conditions: Homo sapiens, KMS-12-BM, Multiple myeloma, 24 hours, read-out: Administration Dose (mean ± SD, μmol/L) Lethal Dose 50 (Apoptosis)
Experimental: Each of the acute T cell leukemia cell lines Jurkat, Molt4 and CCRF-CEM, the acute B cell leukemia cell line Raji and the […] cell lines KMS11, KMS12BM, KMS26, KMS28BM, and IM9 was re-suspended in 10% FBS-containing RPMI medium at a concentration of 1.5×10^5 cells/mL, and 200 μL of each of the cell suspensions was cultured in a flat bottom 96-well plate (Costar). The acute NK cell lymphoma cell line NK-92MI was re-suspended in α-MEM medium (supplemented with 20% FBS, 1×MEM vitamine solution, 50 μM 2-mercaptoethanol and 1× penicillin/streptomycin) at a concentration of 1.5×10^5 cells/mL, and 200 μL of the cell suspension was cultured in a flat bottom 96-well plate. The cells in each well was treated with 10 μL of each of 0.1, 0.25, 0.5, 0.75 and 1 μM of the compound diluted with RPMI medium, followed by that the cells were incubated in a 5% CO2 incubator at 37° C. for 24 hours. […]
The cells were collected, and then the apoptosis thereof was analyzed by a flow cytometer after staining with Annexin V-7-AAD. The incubated cells were collected, placed in a 5-mL FACS tube (BD Falcon) and washed with 1 mL of fluorescence activated cell sorting (FACS) buffer (1%. FBS and 0.1% sodium azaide in PBS). […] The stained cells were suspended in 0.3 mL of FACS buffer, and then analyzed by a flow cytometer. […]

Compound: Cc1cc(C)c(OCC(=O)N/N=C/c2ccc3cc[nH]c3c2)c(C2CCOC2)c1 (centres unmarked) [Compound 229, (E)-N′-((1H-indol-6-yl)methylene)-2-(2,4-dimethyl-6-(tetrahydrofuran-3-yl)phenoxy)acetohydrazide]
- severity of GVHD (clinical scoring system) [1]: slight symptoms of GVHD
- survival rate ([1]; final (day 70), vehicle 10%): 80%
- mouse death, days after cell transplantation ([1]; vehicle from 29 days): 35 days and 46 days
- cytotoxicity at 5 µM [2]: 100%
- EC50 [3]: 0.94 ± 0.09 µmol/L
